Values quoted from earlier work, collected in patent publication US12201674B2 (EDIX SA, priority 2018, dated 2025).

Assays:
[1] = target: human somatostatin receptors (SSTR) 2 (Homo sapiens, UniProt P30874)
SSTR 3 = SSTR 3 (Homo sapiens, UniProt P32745)
SSTR 1 = SSTR 1 (Homo sapiens, UniProt P30872)
SSTR 4 = SSTR 4 (Homo sapiens, UniProt P31391)
SSTR 4, sequence (P31391 whole entry): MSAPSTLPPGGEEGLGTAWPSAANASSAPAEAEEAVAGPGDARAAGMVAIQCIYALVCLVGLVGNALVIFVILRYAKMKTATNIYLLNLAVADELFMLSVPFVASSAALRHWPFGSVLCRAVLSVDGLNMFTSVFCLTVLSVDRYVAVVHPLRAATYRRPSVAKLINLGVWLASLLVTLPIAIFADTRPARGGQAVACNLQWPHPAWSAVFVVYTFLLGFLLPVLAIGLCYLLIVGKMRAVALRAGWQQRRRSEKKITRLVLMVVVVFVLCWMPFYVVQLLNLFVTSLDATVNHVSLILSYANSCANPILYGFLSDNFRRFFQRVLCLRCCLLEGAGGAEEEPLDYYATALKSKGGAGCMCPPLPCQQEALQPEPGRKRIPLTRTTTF

SSTR 1, sequence (P30872 whole entry): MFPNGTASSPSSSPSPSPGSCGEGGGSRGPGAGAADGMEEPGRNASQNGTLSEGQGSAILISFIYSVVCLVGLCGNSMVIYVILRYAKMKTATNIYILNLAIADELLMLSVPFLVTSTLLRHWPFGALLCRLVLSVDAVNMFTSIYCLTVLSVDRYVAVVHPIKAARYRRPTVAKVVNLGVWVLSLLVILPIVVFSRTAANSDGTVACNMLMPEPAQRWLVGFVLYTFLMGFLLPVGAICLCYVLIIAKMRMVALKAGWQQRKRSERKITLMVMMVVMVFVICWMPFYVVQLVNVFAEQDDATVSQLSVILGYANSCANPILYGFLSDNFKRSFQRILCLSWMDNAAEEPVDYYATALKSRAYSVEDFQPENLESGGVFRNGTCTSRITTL
SSTR 3, sequence (P32745 whole entry): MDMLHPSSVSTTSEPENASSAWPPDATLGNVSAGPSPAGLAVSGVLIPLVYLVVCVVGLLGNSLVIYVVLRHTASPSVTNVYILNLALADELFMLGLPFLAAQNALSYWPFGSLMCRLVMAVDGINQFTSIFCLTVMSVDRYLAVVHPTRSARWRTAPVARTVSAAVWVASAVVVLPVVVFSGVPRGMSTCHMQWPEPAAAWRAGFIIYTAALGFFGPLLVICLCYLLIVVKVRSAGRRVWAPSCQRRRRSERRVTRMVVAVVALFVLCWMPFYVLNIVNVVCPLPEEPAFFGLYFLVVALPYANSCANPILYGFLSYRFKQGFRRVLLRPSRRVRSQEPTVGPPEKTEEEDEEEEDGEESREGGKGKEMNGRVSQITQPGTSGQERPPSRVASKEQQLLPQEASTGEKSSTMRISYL
human somatostatin receptors (SSTR) 2, sequence (P30874 whole entry): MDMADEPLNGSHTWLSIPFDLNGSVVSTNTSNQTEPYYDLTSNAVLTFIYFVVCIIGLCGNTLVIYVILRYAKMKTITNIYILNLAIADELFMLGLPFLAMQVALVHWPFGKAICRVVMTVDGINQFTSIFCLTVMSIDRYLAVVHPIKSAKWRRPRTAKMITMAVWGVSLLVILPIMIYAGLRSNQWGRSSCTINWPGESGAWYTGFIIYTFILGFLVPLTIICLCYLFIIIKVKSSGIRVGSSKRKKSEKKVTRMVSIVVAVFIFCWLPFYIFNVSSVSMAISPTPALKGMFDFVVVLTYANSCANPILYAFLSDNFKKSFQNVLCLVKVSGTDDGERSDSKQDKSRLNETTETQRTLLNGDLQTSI

Question: For `CC(C)[C@@H]1NC(=O)[C@H](CCCCN)NC(=O)[C@@H](Cc2c[nH]c3ccccc23)NC(=O)[C@H](Cc2ccc(O)cc2)NC(=O)[C@@H](NC(=O)[C@H](N)Cc2ccc3ccccc3c2)CSSC[C@@H](C(=O)N[C@H](C(N)=O)[C@@H](C)O)NC1=O` [lanreotide], which affinity [1] is on record?
Answer: high affinity

Question: And the affinity (SSTR 3)?
Answer: low affinity

Question: What about the affinity (SSTR 1) of the same molecule?
Answer: low affinity

Question: What about the affinity (SSTR 4) of the same molecule?
Answer: low affinity
